Experimental data reported in US20100280084A1, “Cyp1B1 Genotype” (Government of the US, as represented by the Secret ary, …, priority 2005, published 2010).

Experiments:
[1] = test system: androgen-independent prostate cancer (AIPC); assay: Survival by CYP1B1*3 genotype in men with AIPC treated with docetaxel (Kaplan-Meier); type: in vivo, human; details: for overall median survival: docetaxel 30 mg/m^2 1-hour i.v. weekly for 3 weeks, 1-week rest
Experimental: FIG. 1 depicts Kaplan-Meier curves of overall survival (o-CYP1B1*3; *-CYP1B1*1/*1 and CYP1B1*1/*3) (A) and overall progression free survival (B) in men with prostate cancer treated with docetaxel as a function of CYP1B1*3 genotype. All patients received docetaxel as a 1-hour intravenous infusion at a dose of 30 mg/m^2 in cycles of once every week for 3 consecutive weeks, followed by a 1-week rest period (n=25). DNA was extracted from a […] using a QiaBlood extraction kit (Qiagen, Valencia, Calif.) and stored at 4° C. The CYP1B1*3 alleles were analyzed by direct sequencing. The primers used for sequencing and amplification of the variant were as follows: F4-[…]; R4-[…]; F5-[…]; R5-[…]. A 50-μl reaction was prepared for polymerase chain reaction (PCR) amplification using primers F4 and R4. The reaction consisted of 1×PCR buffer, 2 mM of each of the four deoxynucleotidetriphosphates (dNTPs), 1.5 mM magnesium chloride, and 1 unit of Platinum Taq DNA polymerase. PCR conditions were: 94° C. for 5 minutes, followed by 40 cycles of 94° C. for 30 seconds, 66° C. for 30 seconds, and 72° C. for 30 seconds, with a final 7-minute cycle at 72° C. Direct nucleotide sequencing PCR was conducted using the Big Dye Terminator Cycle Sequencing Ready Reaction kit V1.1 on an ABI Prism 310 Genetic Analyzer (Applied BioSystems, Foster City, Calif.).
The CYP1B1 genotypes on germline DNA obtained from 25 men with AIPC treated with docetaxel (Aventis Pharmaceuticals, Bridgewater, N.J.) were retrospectively evaluated. The subjects were administered docetaxel intravenously over 1-hour at a dose of 30 mg/m^2 in whom detailed survival data were available (Table 1). Inclusion and exclusion criteria have been previously published (12). The study protocol was approved by the Institutional Review Board (Bethesda, Md.), and all patients provided written informed consent. DNA was isolated from whole blood and variants in the CYP1B1 gene were analyzed by direct nucleotide sequencing (see Legend to FIG. 1). The association between genotypes and progression-free survival and overall survival was determined by the Kaplan-Meier method using a two-tailed log rank test. The homozygous wild-type (CYP1B1*1/*1) and heterozygous variant (CYP1B1*1/*3) genotypes were pooled in the analysis on the basis of similarity of outcomes. The associated p-value was adjusted to be two times the unadjusted value to account for the two implicit comparisons made in determining the desirability of combining groups. Progression was censored at the off study date if a patient was removed for toxicity or another reason.

[2] = Docetaxel clearance as a function of CYP1B1*3 genotype in 23 patients; details: human, in vivo, P=0.39
Experimental: To exclude the possibility that the observed decreased survival time for subjects carrying the CYP1B1*3/*3 variant was the result of altered exposure to docetaxel, the pharmacokinetic data generated in a previous study (15) in 23 patients treated with docetaxel as a function of CYP1B1*3 genotype was analyzed.

CYP1B1 [3] = molecular target: T1, CYP1B1 (Homo sapiens, UniProt Q16678); details: in vitro studies (reference 16); cited from earlier work
T1 sequence (Q16678 1-543): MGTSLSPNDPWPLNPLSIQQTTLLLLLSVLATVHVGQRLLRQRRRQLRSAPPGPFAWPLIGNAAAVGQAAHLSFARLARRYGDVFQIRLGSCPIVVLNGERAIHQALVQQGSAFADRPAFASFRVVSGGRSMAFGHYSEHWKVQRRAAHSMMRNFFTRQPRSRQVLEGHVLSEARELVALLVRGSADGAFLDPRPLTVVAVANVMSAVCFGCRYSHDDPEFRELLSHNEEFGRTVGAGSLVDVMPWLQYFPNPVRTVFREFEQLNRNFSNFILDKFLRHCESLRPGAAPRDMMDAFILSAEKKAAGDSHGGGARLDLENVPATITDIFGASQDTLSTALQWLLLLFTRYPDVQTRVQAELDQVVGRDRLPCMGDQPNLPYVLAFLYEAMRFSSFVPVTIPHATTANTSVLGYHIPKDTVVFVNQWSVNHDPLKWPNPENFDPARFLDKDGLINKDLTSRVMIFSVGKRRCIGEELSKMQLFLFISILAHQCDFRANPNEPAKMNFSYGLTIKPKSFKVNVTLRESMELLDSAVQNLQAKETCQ

CYP1B1 [4] = molecular target: T1, CYP1B1; details: previous preclinical studies (references 2, 3); cited from earlier work
[5] = test system: transfected Chinese hamster ovary cells; details: reversible by chemical inhibition (references 2, 3); cited from earlier work

## CC(=O)O[C@@]12CO[C@@H]1C[C@H](O)[C@@]1(C)C(=O)[C@H](O)C3=C(C)[C@@H](OC(=O)[C@H](O)[C@@H](NC(=O)OC(C)(C)C)c4ccccc4)C[C@@](O)([C@@H](OC(=O)c4ccccc4)[C@H]21)C3(C)C [docetaxel]
[1]; 5 patients homozygote variant (CYP1B1*3/*3)
  overall median survival: 7.5 months
[1]; 7 wild type plus 13 heterozygotes (CYP1B1*1/*1 and *1/*3 pooled)
  overall median survival: 15.3 months
[1]; CYP1B1*3/*3 variant, P=0.13 versus pooled genotypes
  progression free survival: 3.3 months
[1]; CYP1B1*3/*3 versus pooled wild type and heterozygotes, P=0.012
  decrease in median survival time: 7.8 months
[1]; pooled wild type and heterozygous genotypes, P=0.13 versus CYP1B1*3/*3
  progression free survival: 6.2 months
[2]; patients homozygous for the variant allele, 95% CI 26.9 to 37.0 L/h
  clearance: 533 mL/min
[2]; patients homozygous or heterozygous for the wild-type allele, 95% CI 27.5 to 48.9 L/h
  clearance: 637 mL/min
CYP1B1 [3]
  metabolism by CYP1B1: not directly metabolized by CYP1B1
CYP1B1 [4]
  inhibition of CYP1B1-mediated ethoxyresorufin O-deethylation: competitively inhibits
[5]
  effect of CYP1B1 overexpression on cellular sensitivity to docetaxel: docetaxel resistance
